Assay results published in patent US12673961B2 (Agios Pharmaceuticals, Inc., priority 2022, dated 2026).

Molecular target: T1, human PAH with the R408W mutation (Homo sapiens, UniProt P00439, R408W)
T1 construct: expressed in transfected cells
T1 sequence (P00439 1-452 R408W): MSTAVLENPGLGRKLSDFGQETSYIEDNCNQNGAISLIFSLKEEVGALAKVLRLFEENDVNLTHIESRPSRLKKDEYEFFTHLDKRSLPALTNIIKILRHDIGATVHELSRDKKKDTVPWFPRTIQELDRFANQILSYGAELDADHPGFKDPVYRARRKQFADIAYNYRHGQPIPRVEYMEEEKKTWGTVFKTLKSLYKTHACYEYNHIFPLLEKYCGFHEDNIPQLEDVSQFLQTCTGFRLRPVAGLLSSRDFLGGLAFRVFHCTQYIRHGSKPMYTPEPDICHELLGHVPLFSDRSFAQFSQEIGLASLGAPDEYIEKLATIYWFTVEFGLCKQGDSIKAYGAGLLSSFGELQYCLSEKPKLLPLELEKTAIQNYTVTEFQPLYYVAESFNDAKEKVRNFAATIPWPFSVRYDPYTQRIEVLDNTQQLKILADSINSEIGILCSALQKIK
Assay: Cell Based Phenylalanine Flux Assay;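 further: Ten-point dose curve from 2-fold serial dilutions, run in duplicate at 0.5% DMSO final, tracer step used 20 µM sepiapterin and 800 µM labeled phenylalanine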
Details: A375 cells expressing human R408W PAH; 24 hrs compound incubation; 13C-Tyrosine by LC-MS; average where tested multiple times; read-out: AC50

| SMILES | AC50 [µM] |
| --- | --- |
| C[C@@H](O)c1nc(C(F)F)c(C(=O)N2CCc3[nH]cnc3[C@@H]2c2cc3ccccn3n2)o1 [Example 691, (4-(difluoromethyl)-2-((R)-1-hydroxyethyl)oxazol-5-yl)((R)-4-(pyrazolo[1,5-a]pyridin-2-yl)-6,7-dihydro-1H-imidazo[4,5-c]pyridin-5(4H)-yl)methanone] | > 5 |
| CC(C)(C#N)c1nc(C(F)F)c(C(=O)N2CCc3[nH]cnc3[C@@H]2c2cc3ccccn3n2)o1 [Example 698, (R)-2-(4-(difluoromethyl)-5-(4-(pyrazolo[1,5-a]pyridin-2-yl)-4,5,6,7-tetrahydro-1H-imidazo[4,5-c]pyridine-5-carbonyl)oxazol-2-yl)-2-methylpropanenitrile] | 1 to 5 |
| C[C@@H](O)c1nc(C(F)F)c(C(=O)N2CCc3[nH]cnc3[C@@H]2c2cc3c(Cl)cccn3n2)o1 [Example 703, ((R)-4-(4-chloropyrazolo [1,5-a]pyridin-2-yl)-6,7-dihydro-1H-imidazo[4,5-c]pyridin-5(4H)-yl)(4-(difluoromethyl)-2-((R)-1-hydroxyethyl)oxazol-5-yl)methanone] | 1 to 5 |
| O=C(c1oc(C2(O)CC2)nc1C(F)F)N1CCc2[nH]cnc2[C@@H]1c1cc2c(Cl)cccn2n1 [Example 705, (R)-(4-(4-chloropyrazolo [1,5-a]pyridin-2-yl)-6,7-dihydro-1H-imidazo[4,5-c]pyridin-5(4H)-yl)(4-(difluoromethyl)-2-(1-hydroxycyclopropyl)oxazol-5-yl)methanone] | 1 to 5 |
| C[C@@H](O)c1nc(C(F)F)c(C(=O)N2CCc3[nH]cnc3[C@@H]2c2cc3c(F)cccn3n2)o1 [Example 711, (4-(difluoromethyl)-2-((R)-1-hydroxyethyl)oxazol-5-yl)((R)-4-(4-fluoropyrazolo [1,5-a]pyridin-2-yl)-6,7-dihydro-1H-imidazo[4,5-c]pyridin-5(4H)-yl)methanone] | > 5 |
| C[C@H](O)c1nc(C(F)F)c(C(=O)N2CCc3[nH]cnc3[C@H]2c2cc3c(F)cccn3n2)o1 [Example 712, (4-(difluoromethyl)-2-((S)-1-hydroxyethyl)oxazol-5-yl)((S)-4-(4-fluoropyrazolo [1,5-a]pyridin-2-yl)-6,7-dihydro-1H-imidazo[4,5-c]pyridin-5(4H)-yl)methanone] | < 0.5 |
| C[C@H](O)c1nc(C(F)F)c(C(=O)N2CCc3[nH]cnc3[C@@H]2c2cc3c(F)cccn3n2)o1 [Example 713, (4-(difluoromethyl)-2-((S)-1-hydroxyethyl)oxazol-5-yl)((R)-4-(4-fluoropyrazolo [1,5-a]pyridin-2-yl)-6,7-dihydro-1H-imidazo[4,5-c]pyridin-5(4H)-yl)methanone] | > 5 |
| CC(C)(O)c1nc(C(F)(F)F)c(C(=O)N2CCc3[nH]cnc3[C@H]2c2cc3c(F)cccn3n2)o1 [Example 744, (S)-(4-(4-fluoropyrazolo[1,5-a]pyridin-2-yl)-6,7-dihydro-1H-imidazo[4,5-c]pyridin-5(4H)-yl)(2-(2-hydroxypropan-2-yl)-4-(trifluoromethyl)oxazol-5-yl)methanone] | < 0.5 |
| Cc1nc([C@H](C)O)oc1C(=O)N1CCc2[nH]cnc2[C@@H]1c1cc2c(C)cccn2n1 [Example 751, (2-((S)-1-hydroxyethyl)-4-methyloxazol-5-yl)((R)-4-(4-methylpyrazolo[1,5-a]pyridin-2-yl)-6,7-dihydro-1H-imidazo [4,5-c]pyridin-5(4H)-yl) methanone] | > 5 |
| Cc1nc(C(C)(C)O)oc1C(=O)N1CCc2[nH]cnc2[C@@H]1c1cc2c(C)cccn2n1 [Example 755, (R)-(2-(2-hydroxypropan-2-yl)-4-methyloxazol-5-yl)(4-(4-methylpyrazolo[1,5-a]pyridin-2-yl)-6,7-dihydro-1H-imidazo[4,5-c]pyridin-5(4H)-yl)methanone] | > 5 |
| O=C(c1ccnn1C(F)F)N1CCc2[nH]cnc2[C@@H]1c1cc2c(Cl)cccn2n1 [Example 783, (R)-(4-(4-chloropyrazolo [1,5-a]pyridin-2-yl)-6,7-dihydro-1H-imidazo [4,5-c]pyridin-5(4H)-yl)(1-(difluoromethyl)-1H-pyrazol-5-yl)methanone] | 1 to 5 |
| Cc1c([C@H]2c3nc[nH]c3CCN2C(=O)c2oc(C(C)(C)O)nc2C(F)F)nn2ccccc12 [Example 787, (R)-(4-(difluoromethyl)-2-(2-hydroxypropan-2-yl)oxazol-5-yl)(4-(3-methylpyrazolo[1,5-a]pyridin-2-yl)-6,7-dihydro-1H-imidazo [4,5-c]pyridin-5(4H)-yl)methanone] | 1 to 5 |

The remaining lines, values ahead:

| AC50 [µM] | SMILES |
| --- | --- |
| > 5 | Cn1cc(-c2nnc(C(=O)N3CCc4[nH]cnc4[C@@H]3c3cc4c(F)cccn4n3)o2)cn1 [Example 729, (R)-(4-(4-fluoropyrazolo[1,5-a]pyridin-2-yl)-6,7-dihydro-1H-imidazo[4,5-c]pyridin-5(4H)-yl)(5-(1-methyl-1H-pyrazol-4-yl)-1,3,4-oxadiazol-2-yl)methanone] |
| < 0.5 | Cn1ccc(-c2nnc(C(=O)N3CCc4[nH]cnc4[C@H]3c3cc4c(F)cccn4n3)o2)n1 [Example 730, (S)-(4-(4-fluoropyrazolo [1,5-a]pyridin-2-yl)-6,7-dihydro-1H-imidazo[4,5-c]pyridin-5(4H)-yl)(5-(1-methyl-1H-pyrazol-3-yl)-1,3,4-oxadiazol-2-yl)methanone] |
| > 5 | O=C(c1nnc(-c2ccccn2)o1)N1CCc2[nH]cnc2[C@@H]1c1cc2c(F)cccn2n1 [Example 732, (R)-(4-(4-fluoropyrazolo [1,5-a]pyridin-2-yl)-6,7-dihydro-1H-imidazo[4,5-c]pyridin-5(4H)-yl)(5-(pyridin-2-yl)-1,3,4-oxadiazol-2-yl)methanone] |
| > 5 | Cc1cccn2nc([C@H]3c4nc[nH]c4CCN3C(=O)c3nnc(-c4ccn(C)n4)o3)cc12 [Example 742, (R)-(5-(1-methyl-1H-pyrazol-3-yl)-1,3,4-oxadiazol-2-yl)(4-(4-methylpyrazolo[1,5-a]pyridin-2-yl)-6,7-dihydro-1H-imidazo [4,5-c]pyridin-5(4H)-yl)methanone] |
| > 5 | Cc1cccn2nc([C@H]3c4nc[nH]c4CCN3C(=O)c3cnco3)cc12 [Example 769, (R)-(4-(4-methylpyrazolo [1,5-a]pyridin-2-yl)-6,7-dihydro-1H-imidazo[4,5-c]pyridin-5(4H)-yl)(oxazol-5-yl)methanone] |
| > 5 | COc1cccn2nc([C@H]3c4nc[nH]c4CCN3C(=O)c3nnc(-c4ccccn4)o3)cc12 [Example 778, (R)-(4-(4-methoxypyrazolo [1,5-a]pyridin-2-yl)-6,7-dihydro-1H-imidazo[4,5-c]pyridin-5(4H)-yl)(5-(pyridin-2-yl)-1,3,4-oxadiazol-2-yl)methanone] |
| < 0.5 | COc1ccc(-c2nnc(C(=O)N3CCc4[nH]cnc4[C@H]3c3cc4c(F)cccn4n3)o2)nc1 [Example 788, (S)-(4-(4-fluoropyrazolo[1,5-a]pyridin-2-yl)-6,7-dihydro-1H-imidazo[4,5-c]pyridin-5(4H)-yl)(5-(5-methoxypyridin-2-yl)-1,3,4-oxadiazol-2-yl)methanone] |
| < 0.5 | O=C(c1nnc(-c2ncccc2F)o1)N1CCc2[nH]cnc2[C@H]1c1cc2c(F)cccn2n1 [Example 791, (S)-(4-(4-fluoropyrazolo[1,5-a]pyridin-2-yl)-6,7-dihydro-1H-imidazo[4,5-c]pyridin-5(4H)-yl)(5-(3-fluoropyridin-2-yl)-1,3,4-oxadiazol-2-yl) methanone] |
